Laboratory results published in patent publication US20050119301A1, “Treatment of restenosis” (priority 2001, published 2005).

What was measured:
[1] = system: rat isolated aortic rings; assay: Vasodilatory capacity in noradrenaline pre-constricted aortic rings and mechanism of action (Protocol 2a/2b); conditions: for vasodilatory response: effect of high KCl levels: KCl 40 mM; for vasodilatory response: effect of nitro-L-arginine (NOLA): NOLA 10 μM; for vasodilatory response: effect of ODQ: ODQ 10 μM; for vasodilatory response: effect of removal of the endothelium: denuded vs intact endothelium; for vasodilatory response: effect of indomethacin: indomethacin 10 μM
Procedure: Male Sprague-Dawley rats (250±50 g) were gassed with 80% CO2 and 20% O2 until killed. The thoracic aorta was excised and quickly placed in ice-cold Krebs modified solution composed of NaCl […], […] 4.7 mM, MgSO4 7H2O 1.17 mM, NaHCO3 25 mM, KH2PO4 1.18 mM, CaCl2 2.5 mM, glucose 11 mM and EDTA 0.03 mM. It was then trimmed of fat and connective tissue and cut into 2-3 mm wide rings. Each ring was mounted on two parallel stainless steel hooks in a single water-jacketed 3 ml organ bath containing modified Krebs solution maintained at 37° C. and bubbled with 95% O2 plus 5% CO2. The lower hook was attached to a movable support leg and the upper hook to an FTO3 force transducer (Grass Scientific Instruments, Mitutoyo, Japan) for isometric recordings. Changes in force were amplified (Quadbridge amplifier, Scientific Concepts Inc., Victoria, Australia) and recorded on a MacLab 8E data acquisition system (Adinstruments Pty Ltd., NSW, Australia) linked to an Apple computer (Apple Computer Inc, Cupertina, Calif.). Rings were set at an initial tension of 2 g and allowed to equilibrate for 30 minutes after which time they were re-set to 2 g tension before the commencement of each experimental protocol.
A full concentration response to noradrenaline was obtained. From this the concentration producing a submaximal contraction of approximately 80% was selected (0.03-0.3 μM). The ring was then constricted with this submaximal concentration and allowed to plateau before full concentration-relaxation curves were obtained to β-estradiol and Cpds. 5, 7, 8 and 12 and the vehicle DMSO (at equi-volume). Only one compound was studied with any one ring from any one animal.
Full relaxation curves were obtained to Cpds. 5, 7, 8 and 12 and β-estradiol in the absence and presence of the endothelium (rings were denuded of endothelium by gentle rotation of the lumen against a rough surface), the nitric oxide synthase inhibitor nitro-L-arginine (NOLA 10 μM; with the exception of Cpd. 8, due to limited supply of the compound), KCl 40 mM (to inhibit endothelium derived hyperpolarising factor), the cyclo-oxygenase inhibitor indomethacin (10 μM) and the soluble guanylate cyclase inhibitor 1H-[1,2,4]oxadiazolo[4,3-a]quinoxalin-1-one (ODQ; 10 μM). Only one compound with only one intervention was tested on any one ring from any one animal.
Contractile responses are expressed in g tension (mean+standard error of the mean). Dilatory responses are expressed as a percentage of the contractile force generated by the pre-constricting agent used. Individual concentration-response curves for noradrenaline and acetylcholine±the interventions used were fitted to a logistic equation of the form […] where E is the response, M is the maximum response and K is the concentration eliciting 50% of the maximum response (ie neg log EC50).

LDL = LDL antioxidation test (CuCl2-initiated LDL oxidation, lag time); assay type: biochemical, human; conditions: Table 3, 10 μM; for Lag Time: control 20 min
[2] = system: Human umbilical vein endothelial cells; assay: Endothelial cell proliferation assay; assay type: cell-based; conditions: Cpd. 8 1-10 mg/ml; for endothelial cell proliferation (in words): 3 days, two donors, Cpd. 5, 7, 12 0.01-10 mg/ml; for toxicity to endothelial cells: Cpd. 12 0.01-10 mg/ml
Procedure: Human umbilical vein endothelial cells between passage 1 and 3 were used. Cells were grown in gelatin coated flasks in medium 199 with Earle's Salts supplemented with 20% foetal calf serum, 25 mg/ml endothelial cell growth supplement and 25 mg/ml heparin. Cells from two different donors were used.
5×10^3 cells in […] growth medium were plated into gelatin coated microtitre wells. The test compounds were added at plating. The cells were then incubated for 3 days and cell number determined by a calorimetric assay (CellTiter96 Aqueous assay, Promega). Results were compared to a standard curve performed in each experiment. Two different endothelial cell isolates were used and the assays were performed on two different days. The effect of isoflavone derivatives on the proliferation of human umbilical vein endothelial cells are shown for donor No. 1 (FIG. 15) and donor No. 2 (FIG. 16).

LDL receptor [3] = assay: LDL receptor expression on HepG2 cells, [125I]-LDL specific binding; assay type: cell-based, human; conditions: for LDL receptor expression, Experiment 3 / LDL receptor expression, Experiment 2 / LDL receptor expression, Experiment 1: 48 hours; for LDL receptor expression, Experiment 3: control 130 ± 18; for LDL receptor expression, Experiment 2: control 261 ± 57; for LDL receptor expression, Experiment 1: control 283 ± 32; for effect on LDL binding / LDL receptor expression over control (in words): HepG2
Procedure: Confluent human hepatoma (HepG2) cells were preincubated in the absence or presence of the test compound (Cpd. 7, Cpd. 8 and Cpd. 12 at final concentration of 50 nM, 500 nM and […]) for 48 hours, in complete DMEM medium containing 10% fetal bovine serum (FBS). Serum deprivation (i.e. 0.5% FBS) was used as a positive control to induce LDL receptor expression. Following preincubation, cells were washed before […] of [^125I]-LDL (specific activity 6.5-29.5 cpm/fmol) was added and the cells incubated at 4° C. for another 4 hours in the absence (for total binding) and presence of […] unlabelled LDL (to assess non-specific binding). Cells were then washed, lysed (0.1 M NaOH), and the radioactivity and protein content (BCA assay) of the lysate determined. The number of LDL receptors was determined from the specific binding (total binding minus non-specific binding), assuming one molecule of LDL binds per LDL receptor. Three independent experiments (each in triplicate) were performed with different batches of cells and [^125I]-LDL.
To determine the concentration of LDL needed to reach binding saturation, confluent HepG2 cells were incubated in 12-well plates with increasing concentrations of [^125I]-LDL in the presence of excess (i.e., […]) unlabelled LDL. […] Using this concentration, the time required to reach saturation binding at 4° C. was determined to be approximately 4 hours. These established optimal conditions were used for all subsequent binding assays.

LDL receptor [4] = assay: as above; assay type: cell-based, human; conditions: 10 μM; for concentration dependence of LDL receptor expression: 50 nM, 500 nM; for LDL receptor expression, Experiment 3 / LDL receptor expression, Experiment 2 / LDL receptor expression, Experiment 1: 48 hours; for LDL receptor expression, Experiment 3: control 130 ± 18; for LDL receptor expression, Experiment 2: control 261 ± 57; for LDL receptor expression, Experiment 1: control 283 ± 32

Structure (SMILES) | vasodilatory response: effect of high KCl levels [1] | vasodilatory response: effect of nitro-L-arginine (NOLA) [1] | vasodilatory response: effect of ODQ [1] | vasodilatory response: effect of removal of the endothelium [1] | vasodilatory response: effect of indomethacin [1] | % Increase in Time (LDL) [%] | Lag Time (LDL) [min] | endothelial cell proliferation (in words) [2] | LDL receptor expression, Experiment 3 (LDL receptor [3]; 50 nM) | LDL receptor expression, Experiment 2 (LDL receptor [3]; 50 nM) | LDL receptor expression, Experiment 1 (LDL receptor [3]; 50 nM, mean ± SD, n = 3) | LDL receptor expression, Experiment 3 (LDL receptor [3]; 500 nM) | LDL receptor expression, Experiment 2 (LDL receptor [3]; 500 nM) | LDL receptor expression, Experiment 1 (LDL receptor [3]; 500 nM) | effect on LDL binding / LDL receptor expression over control (in words) (LDL receptor [3]) | concentration dependence of LDL receptor expression (LDL receptor [4]) | LDL receptor expression, Experiment 3 (LDL receptor [4]) | LDL receptor expression, Experiment 2 (LDL receptor [4]) | LDL receptor expression, Experiment 1 (LDL receptor [4]) | toxicity to endothelial cells [2]
O=C1c2ccc(O)cc2OCC1c1ccc(O)cc1 (centres unmarked) [Cpd. 5] | inhibited | inhibited | inhibited | inhibited | did not influence | 0 | 20 | no apparent effect on endothelial cell proliferation |  |  |  |  |  |  |  |  |  |  |  | 
Oc1ccc(C2COc3cc(O)ccc3C2O)cc1 (centres unmarked) [Cpd. 7] | inhibited | trend towards inhibition of these responses by NOLA but this was not statistically significant | inhibited | inhibited | did not influence | 100 | 50 | no appreciable antiproliferative action | 159 ± 30 fmol LDL receptors per mg cell protein | 239 ± 49 fmol LDL receptors per mg cell protein | 299 ± 45 fmol LDL receptors per mg cell protein | 171 ± 14 fmol LDL receptors per mg cell protein | 199 ± 58 fmol LDL receptors per mg cell protein | 281 ± 22 fmol LDL receptors per mg cell protein | increased LDL binding | increased concentration-dependently | 194 ± 46 fmol LDL receptors per mg cell protein | 306 ± 70 fmol LDL receptors per mg cell protein | 332 ± 46 fmol LDL receptors per mg cell protein | 
Oc1ccc(C2=Cc3ccc(O)cc3OC2)cc1 [Cpd. 12] | inhibited |  |  | inhibited |  | >600 | >140 | inhibited cellular proliferation | 156 ± 24 fmol LDL receptors per mg cell protein | 134 ± 52 fmol LDL receptors per mg cell protein | 319 ± 43 fmol LDL receptors per mg cell protein | 136 ± 23 fmol LDL receptors per mg cell protein | 233 ± 40 fmol LDL receptors per mg cell protein | 311 ± 35 fmol LDL receptors per mg cell protein | without consistent effect |  | 174 ± 35 fmol LDL receptors per mg cell protein | 161 ± 35 fmol LDL receptors per mg cell protein | 290 ± 42 fmol LDL receptors per mg cell protein | did not cause toxicity
Oc1ccc(C2COc3cc(O)ccc3C2O)cc1 (centres unmarked) [Cpd. 8] | inhibited |  | but not by ODQ | inhibited | potentiated | >600 | >140 | inhibited cellular proliferation | 152 ± 24 fmol LDL receptors per mg cell protein | 291 ± 66 fmol LDL receptors per mg cell protein | 273 ± 22 fmol LDL receptors per mg cell protein | 193 ± 18 fmol LDL receptors per mg cell protein | 291 ± 52 fmol LDL receptors per mg cell protein | 312 ± 42 fmol LDL receptors per mg cell protein | increased LDL binding | no clear concentration-dependent effect | 143 ± 34 fmol LDL receptors per mg cell protein | 273 ± 57 fmol LDL receptors per mg cell protein | 315 ± 24 fmol LDL receptors per mg cell protein | did not cause toxicity
